Source: US20260022142A1, “MACROCYCLIC IMMUNOMODULATORS” (Bristol-Myers Squibb Company, priority 2022, published 2026)
pIC50: −log10 of the molar value. Numbered stars: 1 amine (or outer) side, 2 acyl side, 3 side chain; on linkers, the order of the positions; unused ones are H or OH. Bridge positions count the residues as written; N and C are the ends. Square brackets hold non-standard residues; d marks the D form. Peptide text beside a SMILES is read from it. * marks the point of attachment. ξ: configuration not given here. Phe(3-CF3) = N[C@@H](Cc1cccc(C(F)(F)F)c1)C(=O)O; Phe(4-COOH) = N[C@@H](Cc1ccc(C(=O)O)cc1)C(=O)O; Bip = N[C@@H](Cc1ccc(-c2ccccc2)cc1)C(=O)O; NH(CH2)14COOH = O=C(O)CCCCCCCCCCCCCCN*; Phe(3-Me) = Cc1cccc(C[C@H](N)C(=O)O)c1; γGlu = O=C(O)[C@H](CCC(=O)[*:2])N[*:1]; βAsp = O=C(O)[C@H](CC(=O)[*:2])N[*:1]; Val(3-OH) = CC(C)(O)[C@H](N)C(=O)O; Cha = N[C@@H](CC1CCCCC1)C(=O)O; Ile(3ξ) = CCC(C)[C@H](N)C(=O)O; Carboxymethyl = O=C(O)C*; Nle = CCCC[C@H](N)C(=O)O; Orn = NCCC[C@H](N)C(=O)O; Dab = NCC[C@H](N)C(=O)O; AEEA = NCCOCCOCC(=O)O

Biological target: T1, PD-1/PD-L1 interaction (PE-labeled human PD-L1-Ig binding to Jurkat cell line over-expressing human PD-1) (Homo sapiens, UniProt Q15116)
T1 construct: expressed in transfected cells; host or cells: Jurkat
T1 sequence (Q15116 25-288): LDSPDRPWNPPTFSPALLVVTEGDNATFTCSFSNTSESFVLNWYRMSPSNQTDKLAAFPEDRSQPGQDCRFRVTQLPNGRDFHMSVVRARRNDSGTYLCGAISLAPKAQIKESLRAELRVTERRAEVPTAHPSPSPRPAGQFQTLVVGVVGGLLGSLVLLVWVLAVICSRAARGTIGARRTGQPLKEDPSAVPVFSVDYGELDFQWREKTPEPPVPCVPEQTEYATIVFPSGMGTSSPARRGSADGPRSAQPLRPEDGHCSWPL
Assay: Jurkat-PD-1 Cell Binding High-Content Screening Assay (CBA)
Type: cell-based
Details: Jurkat cell line over-expressing human PD-1; PE-labeled PD-L1-Ig 20 nM final; read-out: Jurkat hPD1-PDL1 IC50
How it was run: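 Binding of fluorescent PD-L1-Ig (phycoerythrin on Ig tag, 20 nM final, 1 h) measured by high-content imaging of fixed, Hoechst-counterstained Jurkat-hPD-1 cells. Compound added 2 h at 37° C beforehand, in DMEM with 10% fetal calf serum.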

Row | Structure (SMILES) | pIC50
1 | Cc1cccc(C[C@@H]2NC(=O)[C@H](CC(=O)O)NC(=O)[C@H](Cc3ccc(C(=O)O)cc3)NC(=O)[C@H](C)NC(=O)CSC[C@@H](C(=O)N[C@@H](CCN)C(=O)NCCOCCOCC(=O)N[C@@H](CCC(=O)O)C(=O)N[C@@H](CC(=O)NCCOCCOCC(=O)NCCCCCCCCCCCCCCC(=O)O)C(=O)O)NC(=O)[C@H](Cc3cnc[nH]3)NC(=O)[C@H](C(C)(C)O)NC(=O)[C@H](CC3CCCCC3)NC(=O)[C@H](CCN)NC(=O)[C@@H](CC(C)C)NC(=O)[C@H](CCCN)NC(=O)[C@H](Cc3ccc(C(=O)O)cc3)NC(=O)[C@H](Cc3ccc(-c4ccccc4)cc3)NC(=O)[C@H](Cc3ccc(C(=O)O)cc3)NC2=O)c1 [Compound 3884] ({CH2CO}-A[Phe(4-COOH)]D[Phe(3-Me)][Phe(4-COOH)][Bip][Phe(4-COOH)][Orn][dL][Dab][Cha][Val(3-OH)]HC[Dab][AEEA]E[βAsp][AEEA]-{NH(CH2)14COOH}; thioether N-14) | 6.83
2 | CCC(C)[C@@H]1NC(=O)[C@H](Cc2ccc(-c3ccccc3)cc2)NC(=O)[C@H](C(C)C)NC(=O)[C@H](Cc2c[nH]c3ccccc23)NC(=O)[C@H](CC(=O)O)NC(=O)[C@H](Cc2ccc(OCC(=O)O)cc2)NC(=O)[C@H](Cc2ccc(OCC(=O)O)cc2)NC(=O)CSC[C@@H](C(=O)N[C@H](C)C(=O)NCCOCCOCC(=O)NCCCCCCCCCCCCCCC(=O)O)NC(=O)[C@H](CCCNC(=N)N)NC(=O)[C@H](C(C)(C)O)NC(=O)[C@H](CC2CCCCC2)NC(=O)[C@H](CCN)NC(=O)[C@@H](CC(C)C)NC(=O)[C@H](CCCN)NC1=O (stereo partly drawn) [Compound 3886] ({CH2CO}-Y(Carboxymethyl)Y(Carboxymethyl)DWV[Bip][Ile(3ξ)][Orn][dL][Dab][Cha][Val(3-OH)]RC[dA][AEEA]-{NH(CH2)14COOH}; thioether N-14) | 6.70
3 | Cc1cccc(C[C@@H]2NC(=O)[C@H](CC(=O)O)NC(=O)[C@H](Cc3ccc(C(=O)O)cc3)NC(=O)[C@H](CCCN)NC(=O)CSC[C@@H](C(=O)N[C@@H](CCN)C(=O)NCCOCCOCC(=O)NCCOCCOCC(=O)N[C@@H](CCC(=O)O)C(=O)N[C@@H](CC(=O)NCCCCCCCCCCCCCCC(=O)O)C(=O)O)NC(=O)[C@H](Cc3cnc[nH]3)NC(=O)[C@H](C(C)(C)O)NC(=O)[C@H](CC3CCCCC3)NC(=O)[C@H](CCN)NC(=O)[C@@H](CC(C)C)NC(=O)[C@H](CCCN)NC(=O)[C@H](Cc3ccc(C(=O)O)cc3)NC(=O)[C@H](Cc3ccc(-c4ccccc4)cc3)NC(=O)[C@H](Cc3ccc(C(=O)O)cc3)NC2=O)c1 [Compound 3887] ({CH2CO}-[Orn][Phe(4-COOH)]D[Phe(3-Me)][Phe(4-COOH)][Bip][Phe(4-COOH)][Orn][dL][Dab][Cha][Val(3-OH)]HC[Dab][AEEA][AEEA]ED(NH(CH2)14COOH)-OH; thioether N-14) | 7.25
4 | CC(=O)NCCCC[C@@H]1NC(=O)[C@H](C(C)(C)O)NC(=O)[C@H](CC2CCCCC2)NC(=O)[C@H](CCN)NC(=O)[C@@H](CC(C)C)NC(=O)[C@H](CCCN)NC(=O)[C@H](Cc2ccc(C(=O)O)cc2)NC(=O)[C@H](Cc2ccc(-c3ccccc3)cc2)NC(=O)[C@H](Cc2ccc(C(=O)O)cc2)NC(=O)[C@H](Cc2cccc(C(F)(F)F)c2)NC(=O)[C@H](CC(=O)O)NC(=O)[C@H](Cc2ccc(OCC(=O)O)cc2)NC(=O)[C@H](Cc2cnc[nH]2)NC(=O)CSC[C@@H](C(=O)N[C@@H](CCN)C(=O)NCCOCCOCC(=O)N[C@@H](CC(=O)N[C@@H](CC(=O)O)C(=O)NCCCCCCCCCCCCCCC(=O)O)C(=O)O)NC1=O [Compound 3888] ({CH2CO}-HY(Carboxymethyl)D[Phe(3-CF3)][Phe(4-COOH)][Bip][Phe(4-COOH)][Orn][dL][Dab][Cha][Val(3-OH)]K(Ac)C[Dab][AEEA][βAsp]D-{NH(CH2)14COOH}; thioether N-14) | 6.93
5 | CC(C)C[C@H]1NC(=O)[C@H](CCCN)NC(=O)[C@H](Cc2ccc(C(=O)O)cc2)NC(=O)[C@H](Cc2ccc(-c3ccccc3)cc2)NC(=O)[C@H](Cc2ccc(C(=O)O)cc2)NC(=O)[C@H](Cc2cccc(C(F)(F)F)c2)NC(=O)[C@H](CC(=O)O)NC(=O)[C@H](Cc2ccc(OCC(=O)O)cc2)NC(=O)[C@H](Cc2cnc[nH]2)NC(=O)CSC[C@@H](C(=O)N[C@@H](CCN)C(=O)NCCOCCOCC(=O)N[C@@H](CC(=O)N[C@@H](CC(=O)O)C(=O)NCCCCCCCCCCCCCCC(=O)O)C(=O)O)NC(=O)[C@H](CCC(=O)O)NC(=O)[C@H](C(C)(C)O)NC(=O)[C@H](CC2CCCCC2)NC(=O)[C@H](CCN)NC1=O [Compound 3889] ({CH2CO}-HY(Carboxymethyl)D[Phe(3-CF3)][Phe(4-COOH)][Bip][Phe(4-COOH)][Orn][dL][Dab][Cha][Val(3-OH)]EC[Dab][AEEA][βAsp]D-{NH(CH2)14COOH}; thioether N-14) | 6.57
6 | CC(C)C[C@H]1NC(=O)[C@H](CCCN)NC(=O)[C@H](Cc2ccc(C(=O)O)cc2)NC(=O)[C@H](Cc2ccc(-c3ccccc3)cc2)NC(=O)[C@H](Cc2ccc(C(=O)O)cc2)NC(=O)[C@H](Cc2cccc(C(F)(F)F)c2)NC(=O)[C@H](CC(=O)O)NC(=O)[C@H](Cc2ccc(OCC(=O)O)cc2)NC(=O)[C@H](C(C)C)NC(=O)CSC[C@@H](C(=O)N[C@@H](CCN)C(=O)NCCOCCOCC(=O)N[C@@H](CCC(=O)O)C(=O)N[C@@H](CCC(=O)NCCCCCCCCCCCCCCC(=O)O)C(=O)O)NC(=O)[C@H](CC(=O)O)NC(=O)[C@H](C(C)(C)O)NC(=O)[C@H](CC2CCCCC2)NC(=O)[C@H](CCN)NC1=O [Compound 3890] ({CH2CO}-VY(Carboxymethyl)D[Phe(3-CF3)][Phe(4-COOH)][Bip][Phe(4-COOH)][Orn][dL][Dab][Cha][Val(3-OH)]DC[Dab][AEEA]EE(NH(CH2)14COOH)-OH; thioether N-14) | 6.36
7 | Cc1cccc(C[C@@H]2NC(=O)[C@H](CC(=O)O)NC(=O)[C@H](Cc3ccc(OCC(=O)O)cc3)NC(=O)[C@H](CC(C)C)NC(=O)CSC[C@@H](C(=O)N[C@@H](CCN)C(=O)NCCOCCOCC(=O)N[C@@H](CCC(=O)O)C(=O)N[C@@H](CCC(=O)NCCOCCOCC(=O)NCCCCCCCCCCCCCCC(=O)O)C(=O)O)NC(=O)[C@H](CC(=O)O)NC(=O)[C@H](C(C)(C)O)NC(=O)[C@H](CC3CCCCC3)NC(=O)[C@H](CCN)NC(=O)[C@@H](CC(C)C)NC(=O)[C@H](CCCN)NC(=O)[C@H](Cc3ccc(C(=O)O)cc3)NC(=O)[C@H](Cc3ccc(-c4ccccc4)cc3)NC(=O)[C@H](Cc3ccc(C(=O)O)cc3)NC2=O)c1 [Compound 3892] ({CH2CO}-LY(Carboxymethyl)D[Phe(3-Me)][Phe(4-COOH)][Bip][Phe(4-COOH)][Orn][dL][Dab][Cha][Val(3-OH)]DC[Dab][AEEA]E[γGlu][AEEA]-{NH(CH2)14COOH}; thioether N-14) | 6.41
8 | CCCC[C@@H]1NC(=O)CSC[C@@H](C(=O)N[C@@H](CCN)C(=O)NCCOCCOCC(=O)N[C@@H](CO)C(=O)N[C@H](CCC(=O)NCCCCCCCCCCCCCCC(=O)O)C(=O)O)NC(=O)[C@H](CC(=O)O)NC(=O)[C@H](C(C)(C)O)NC(=O)[C@H](CC2CCCCC2)NC(=O)[C@H](CCN)NC(=O)[C@@H](CC(C)C)NC(=O)[C@H](CCCN)NC(=O)[C@H](Cc2ccc(OCC(=O)O)cc2)NC(=O)[C@H](Cc2ccc(-c3ccccc3)cc2)NC(=O)[C@H](Cc2ccc(C(=O)O)cc2)NC(=O)[C@H](Cc2cccc(C)c2)NC(=O)[C@H](CC(=O)O)NC(=O)[C@H](Cc2ccc(OCC(=O)O)cc2)NC1=O [Compound 3893] ({CH2CO}-[Nle]Y(Carboxymethyl)D[Phe(3-Me)][Phe(4-COOH)][Bip]Y(Carboxymethyl)[Orn][dL][Dab][Cha][Val(3-OH)]DC[Dab][AEEA]S[dE](NH(CH2)14COOH)-OH; thioether N-14) | 6.43
